Assay results reported in article PMC12814185, “Receptor-Mediated Shuttling of a D‑Amino Acid Peptide Achieves High Nanomolar Cytosolic Concentrations” (Journal of the American Chemical Society, 2025).
Where a SMILES comes first, the peptide text is derived from it. Bridges are numbered along the chain shown (N, C = ends). Roman numbers before positions name the chains, in order. Triazole bridges read from a SMILES are 1,4-linked. Where no end group is shown, it is not given here. Side-chain parts run from the residue outwards. [ ]: non-standard residue; d: D form. The star is where a group is joined. X2 = CN1C(=C/C=C/C=C/C2=[N+](CCCCCC(=O)*)c3ccc(S(=O)(=O)[O-])cc3C2(C)C)C(C)(C)c2cc(S(=O)(=O)O)ccc21; X1 = CN1C(=CC=CC=CC2=[N+](CCCCCC(=O)*)c3ccc(S(=O)(=O)[O-])cc3C2(C)C)C(C)(C)c2cc(S(=O)(=O)O)ccc21; Lys(N3) = [N-]=[N+]=NCCCC[C@H](N)C(=O)O; Cit = NC(=O)NCCC[C@H](N)C(=O)O; d(hCys) = N[C@H](CCS)C(=O)O; PEG3 = NCCOCCOCCOCCC(=O)O; Pra = C#CC[C@H](N)C(=O)O

Legend:
THP-1 cells = experiment: Fluorescence correlation spectroscopy (FCS) in the cytosol; conditions: THP-1, applied concentration 1000 nM, 72 h; for cytosolic concentration, mean ± SD: FCS at 22 °C
Description: (§1) 3 Quantification of Cy5-labeled peptides in the cytosol. (A) RP-HPLC (λex = 640 nm, λem = 670 nm) of cleavage products of Cy5-labeled peptides in the lysate of HEK293_CMKLR1-eYFP cells after incubation with 1 μM peptide for different durations. […] (B) Representative fluorescence correlation spectroscopy (FCS) autocorrelation curves of Cy5-labeled peptides measured in the cytosol of HEK293_CMKLR1-eYFP cells after 72 h of incubation. Measured curves were fitted with a model for hindered 3D diffusion and diffusion time t D and anomalous coefficient α were calculated from the fit. Autocorrelation data represent mean ± SD of up to 10 consecutive 5 s measurements in a single cell. (C) Intracellular concentrations of Cy5-labeled peptides after 72 h incubation calculated from the fitted autocorrelation curves obtained in HEK293_CMKLR1-eYFP, HMEC-1, and THP-1 cells. Each data point corresponds to FCS measurements from the cytosol of a single cell. Median with the interquartile range is shown. Data from three independent experiments. Statistical comparison by log-normal unpaired t test. ***p ≤ 0.001, **p ≤ 0.01, *p ≤ 0.05, ns – not significant. […] (D) Calculated diffusion coefficients from the fitted autocorrelation curves. Median with the interquartile range is shown. […]
(§2) Fluorescence correlation spectroscopy (FCS)
(§3) Cytosolic delivery was quantified by FCS as has been described previously.3–5 Stably transfected HEK293_CMKLR1-eYFP cells were seeded at 30,000 cells per well and HMEC-1 cells at 10,000 cells per well into poly-ᴅ-lysine-coated 8-well microscopy slides (ibidi) in their respective cell culture medium. THP-1 cells were resuspended in fresh cell culture medium at 100,000 cells/mL in 500 µL cell culture medium in uncoated 12-well plates. The next day, dilutions of Cy5-labeled peptides were added to the cells and incubated for 72 h. Cell membranes of HMEC-1 and THP-1 cells were stained with 20 µg/mL Alexa Fluor 488-labeled concanavalin A (Invitrogen) for 20 min to enable identification of the cytosol. Nuclei were counterstained with Hoechst33342, and cells were washed with FluoroBriteTM DMEM (Gibco) + 25 mM HEPES (pH 7.4). After washing, THP-1 cells were transferred to poly-ᴅ-lysine-coated 8-well microscopy slides and allowed to sediment and adhere for 1 h. Confocal imaging and FCS were performed at 22 °C on a TCS SP8 FALCON microscope (Leica) with a Plan-Apochromat 40x/1,10 water immersion objective and HyD single molecule detector (Leica). The 638 nm laser line was used for excitation at 0.5% power and […]

HMEC-1 cells = experiment: as above; conditions: HMEC-1, applied concentration 1000 nM, 72 h; for cytosolic concentration, mean ± SD: FCS at 22 °C
Description: as §1, §2, §3

HEK293 cells = experiment: Live cell fluorescence microscopy of peptide internalization, cells without CMKLR1; format: cell-based; conditions: 1 μM Cy5-labeled peptide, 6 h
Description: 2 Internalization of cyclic chemerin-9 conjugates. Live cell fluorescence microscopy of HEK293 and HEK293 cells stably expressed CMKLR1-eYFP. Cells were incubated with 1 μM Cy5-labeled peptide for 6 h before imaging. Blue = Hoechst33342, yellow = CMKLR1-eYFP, magenta = Cy5-peptide, scale bar ≙ 10 μm. […]
Salt Solution (HBSS, Biowest), pH 7.5) for 1 h. […]
Experiments were performed in technical duplicates and at least […]
HEK293 and HEK293_CMKLR1-eYFP cells were seeded at 15,000 cells per well into poly-ᴅ-lysine coated 96-well plates (black µCLEAR, Greiner). The next day, dilutions of the Cy5 -labeled peptides or Nutlin-3a […]
Cells were then washed and a resazurin-based cell viability […]
assay was performed. […]
Experiments […]
were performed in technical triplicates and at least twice.
Peptide internalization was evaluated by fluorescence microscopy. HEK293 and stably transfected […]
microscopy slides (ibidi). The next day, 1 µM Cy5-labeled peptides in cell culture medium were added to the cells and incubated for 6 h.
FluoroBriteTM DMEM (Gibco) with 10% FBS, 25 mM HEPES (pH 7.4) before imaging on an AxioVision Observer.Z1 microscope equipped with an apotome imaging system, an HXP120C light source, and a C-Apochromat 63x/1.20 W objective. All shown microscopy images are representative of at least two

HEK293_CMKLR1-eYFP cells = experiment: Intracellular peptide stability (cleavage products in cell lysate, RP-HPLC, MALDI-ToF-MS); conditions: 1 μM peptide; for intact peptide in cell lysate: 15 min to 24 h, RP-HPLC λex 640 nm λem 670 nm; for cleavage site identified by MALDI-ToF-MS: PMIγ sequence remained intact
Description: 3 Quantification of Cy5-labeled peptides in the cytosol. (A) RP-HPLC (λex = 640 nm, λem = 670 nm) of cleavage products of Cy5-labeled peptides in the lysate of HEK293_CMKLR1-eYFP cells after incubation with 1 μM peptide for different durations. […] (B) Representative fluorescence correlation spectroscopy (FCS) autocorrelation curves of Cy5-labeled peptides measured in the cytosol of HEK293_CMKLR1-eYFP cells after 72 h of incubation. Measured curves were fitted with a model for hindered 3D diffusion and diffusion time t D and anomalous coefficient α were calculated from the fit. Autocorrelation data represent mean ± SD of up to 10 consecutive 5 s measurements in a single cell. (C) Intracellular concentrations of Cy5-labeled peptides after 72 h incubation calculated from the fitted autocorrelation curves obtained in HEK293_CMKLR1-eYFP, HMEC-1, and THP-1 cells. Each data point corresponds to FCS measurements from the cytosol of a single cell. Median with the interquartile range is shown. Data from three independent experiments. Statistical comparison by log-normal unpaired t test. ***p ≤ 0.001, **p ≤ 0.01, *p ≤ 0.05, ns – not significant. […] (D) Calculated diffusion coefficients from the fitted autocorrelation curves. Median with the interquartile range is shown.
Intracellular peptide stability
2 mL of 1 µM Cy5-labeled peptide in DMEM/Ham's F12 (1:1) + 15% FBS without phenol red were incubated on stably transfected HEK293_CMKLR1-eYFP cells in T25 cell culture flasks for 15 min to 24 h. The cells were washed with cold acidic wash (50 mM glycine, 100 mM sodium chloride, pH 3) and phosphate-buffered saline (PBS, Biowest) and harvested into 300 µl cold PBS with HaltTM Protease inhibitor cocktail (Thermo).
Suspended cells were homogenized with zirconia beads on a FastPrep-24 5G system (MP Biomedical) for 30 s and cellular proteins were precipitated from 600 µL ACN/ethanol (1:1) + 0.1% TFA at -20 °C for 2 h.
Cell lysates were then filtered through Costar Spin-X tubes, separated by RP-HPLC and isolated peaks were identified by MALDI-ToF MS (Ultraflextreme, Bruker). Experiments were performed at least twice and representative RP-HPLC chromatograms are shown.

Compound	cytosolic concentration, median (IQR) (THP-1 cells)	cytosolic concentration, mean ± SD (THP-1 cells) [nM]	cytosolic concentration, median (IQR) (HMEC-1 cells)	cytosolic concentration, mean ± SD (HMEC-1 cells) [nM]	internalization (HEK293 cells)	intact peptide in cell lysate (HEK293_CMKLR1-eYFP cells)	cleavage site identified by MALDI-ToF-MS (HEK293_CMKLR1-eYFP cells; lysate)	incubation time after which a singular cleavage product peak was observed (HEK293_CMKLR1-eYFP cells; RP-HPLC of lysate) [h]	fate of the hsLMWP sequence (HEK293_CMKLR1-eYFP cells; lysate, MALDI-ToF-MS)
CC(=O)N[C@@H](CCCCn1cc(C[C@H](NC(=O)CCOCCOCCOCCNC(=O)[C@H](CCCNC(N)=O)NC(=O)[C@@H](NC(=O)[C@H](CCC(=O)O)NC(=O)CNC(=O)CNC(=O)[C@@H](CCCNC(=N)N)NC(=O)[C@@H](CC(C)C)NC(=O)[C@@H](CC(C)C)NC(=O)[C@@H](C)NC(=O)[C@@H](CCC(=O)O)NC(=O)[C@@H](Cc2ccccc2)NC(=O)[C@@H](C)NC(=O)[C@@H](CC(C)C)NC(=O)[C@H]2CCCN2C(=O)[C@@H](Cc2c[nH]c3ccccc23)NC(=O)[C@@H](Cc2c[nH]c3ccccc23)NC(=O)[C@@H](CC(=O)O)NC(=O)CCOCCOCCOCCNC(=O)CCCCC[N+]2=C(/C=C/C=C/C=C3N(C)c4ccc(S(=O)(=O)O)cc4C3(C)C)C(C)(C)c3cc(S(=O)(=O)[O-])ccc32)C(C)C)C(N)=O)nn1)C(=O)N[C@@H](Cc1ccc(O)cc1)C(=O)N[C@@H](Cc1ccccc1)C(=O)N1CCC[C@H]1C(=O)N[C@@H]1CCSSC[C@@H](C(=O)O)NC(=O)[C@H](Cc2ccccc2)NC(=O)[C@H](C)NC(=O)[C@H](Cc2ccccc2)NC(=O)[C@H](CCC(N)=O)NC1=O [2Cy] (I: {X2-PEG3}-[dD][dW][dW][dP][dL][dA][dF][dE][dA][dL][dL][dR]GGEV[Cit][PEG3][Pra]-NH2 / II: Ac-[Lys(N3)]YFP[d(hCys)]QFAFC-OH; triazole I:19-II:1; disulfide II:5-II:10)	14.0 (7.1–26.6) nM	22.7 ± 25.1	6.4 (3.7–9.3) nM	7.8 ± 5.4	did not internalize	almost no intact peptide was detected	valine-citrulline linker was quickly cleaved		
I: GSVSHHHHHHGGHHHH[PEG3][dK]([PEG3-X1])[dD][dW][dW][dP][dL][dA][dF][dE][dA][dL][dL][dR]GEV[Cit][PEG3][Pra]-NH2 / II: Ac-[Lys(N3)]YFP[d(hCys)]QFAFC-OH (triazole I:36-II:1; disulfide II:5-II:10) [3Cy]	22.6 (12.7–38.5) nM	40.3 ± 77.12	7.0 (5.2–12.4) nM	20.1 ± 57.2	very faint intracellular signals	almost no intact peptide was detected	valine-citrulline linker was quickly cleaved	1	completely removed
